Measurements taken from US20230382904A1, “SUBSTITUTED 4-([1,2,4]TRIAZOLO[1,5-a]PYRIDIN-6-YL)THIOPHENE-2-CARBOXAMIDE DERIVATIVES AND USE THEREOF” (The Johns Hopkins University, priority 2020, published 2023).

How the values were obtained:
DLK = DLK (Homo sapiens (Human), UniProt Q12852); assay: DLK biochemical assay (TR-FRET, MKK7 phosphorylation)
Description: DLK assay is a biochemical assay format designed to screen for inhibitors of DLK. Enzymatic activity of DLK was measured by monitoring phosphorylation of the physiological substrate MKK7 (MAP2K7, Dual specificity mitogen-activated protein kinase kinase 7). Phosphorylation was detected by a TR-FRET system whereby His-tagged MKK7 was labeled by a XL665-labeled anti-His antibody (FRET acceptor, emission 665 nm). DLK phosphorylates MKK7 at T275/S277, which was detected by an Eu-labeled anti-phospho-MKK7 (T275/S277) antibody (F RET donor, excitation 340 nm). Phosphorylation of MKK7 results in an increased TR-FRET signal (Ratio XL665-channel/Eu-channel) and inhibition of enzymatic activity of DLK decreases the TR-FRET signal.
Assay Protocol for 1536 MTP format: test compounds were predispensed (60 nl) in test plates; +3 μl DLK solution (10 nM DLK, catalytic domain, Carna Biosiences, 0.6 mM DTT in assay buffer); +2 μl substrate solution (15 nM MKK7, LDB; 60 μM ATP; 0.4 mM DTT in assay buffer); 90 min incubation at RT; +2 μl detection mix (5 nM XL665-labeled anti-His antibody, Cisbio; 0.1 nM Eu-labeled anti-phospho-MKK7 (T275/S277), Cisbio/Millipore in detection buffer); 16 h incubation at 37° C.; endpoint measurement BMG (HTRF).
Assay Protocol for 384 low volume MTP format: 1 μl of test compounds were pipetted into test plate; +5 μl DLK solution (10 nM DLK, catalytic domain, Carna Biosiences in assay buffer); +5 μl substrate solution (15 nM MKK7, LDB; 60 μM ATP, in assay buffer); 90 min incubation at RT; +9 μl detection mix (20 nM XL665-labeled anti-His antibody, Cisbio; 0.4 nM Eu-labeled anti-phospho-MKK7 (T275/S277), Cisbio/Millipore in detection buffer); 16 h incubation at 4° C.; endpoint measurement BMG (HTRF).
(§1) All indicated concentrations final concentrations.
Assay buffer (384 format): 50 mM Hepes pH 7.5, 10 mM MgCl2, 1 mM EGTA, 1 mM DTT, 0,01% Triton X-100, 0.01% BSA, 1:500 Smart Block.
(§2) Detection buffer: 25 mM Tris/HCl pH 7.5, 100 mM EDTA, 100 mM NaCl, 200 mM KF, 0.01% Tween 20, 1:500 Smart Block.

LZK = LZK (Homo sapiens (Human), UniProt O43283); assay: LZK biochemical assay (TR-FRET, MKK7 phosphorylation)
Description: LZK assay is a biochemical assay format designed to screen for inhibitors of LZK. Enzymatic activity of LZK was measured by monitoring phosphorylation of the physiological substrate MKK7 (MAP2K7, Dual specificity mitogen-activated protein kinase kinase 7). Phosphorylation was detected by a TR-FRET system whereby His-tagged MKK7 was labeled by a XL665-labeled anti-His antibody (FRET acceptor, emission 665 nm). LZK phosphorylates MKK7 at T275/S277 which were detected by an Eu-labeled anti-phospho-MKK7 (T275/S277) antibody (FRET donor, excitation 340 nm). Phosphorylation of MKK7 results in an increased TR-FRET signal (Ratio XL665-channel/Eu-channel) and inhibition of enzymatic activity of LZK decreases the TR-FRET signal.
Assay Protocol for 384 low volume MTP format: 1 μl of test compound was pipetted into test plate; +5 μl LZK solution (10 nM LZK, catalytic domain, Carna Biosiences in assay buffer); +5 μl substrate solution (15 nM MKK7, LDB; 15 μM ATP, in assay buffer); 90 min incubation at RT; +5 μl detection mix (20 nM XL665-labeled anti-His antibody, Cisbio; 0.4 nM Eu-labeled anti-phospho-MKK7 (T275/S277), Cisbio/Millipore in detection buffer), 16 h incubation at 32° C.; endpoint measurement BMG (HTRF).
as §1
Assay buffer (384 format): 50 mM Hepes pH 7.5, 10 mM MgCl2, 1 mM EGTA, 1 mM DTT, 0.01% Triton X-100, 0.01% BSA, 1:500 Smart Block.
as §2

Chain of DLK (Q12852 1-520): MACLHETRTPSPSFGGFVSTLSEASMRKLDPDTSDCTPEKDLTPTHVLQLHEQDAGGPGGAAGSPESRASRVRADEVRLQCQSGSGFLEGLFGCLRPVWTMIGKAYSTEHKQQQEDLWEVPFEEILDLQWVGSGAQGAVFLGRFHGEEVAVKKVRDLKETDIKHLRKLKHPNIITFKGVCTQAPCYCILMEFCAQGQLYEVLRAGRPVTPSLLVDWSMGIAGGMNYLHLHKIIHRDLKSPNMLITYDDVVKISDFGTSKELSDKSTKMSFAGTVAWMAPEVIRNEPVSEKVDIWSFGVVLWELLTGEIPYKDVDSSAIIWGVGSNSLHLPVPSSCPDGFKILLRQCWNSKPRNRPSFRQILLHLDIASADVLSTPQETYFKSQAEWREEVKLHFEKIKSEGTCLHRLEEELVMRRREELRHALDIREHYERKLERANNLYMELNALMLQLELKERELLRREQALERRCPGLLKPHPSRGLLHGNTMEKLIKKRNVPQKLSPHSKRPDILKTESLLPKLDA
Chain of LZK (O43283 168-409): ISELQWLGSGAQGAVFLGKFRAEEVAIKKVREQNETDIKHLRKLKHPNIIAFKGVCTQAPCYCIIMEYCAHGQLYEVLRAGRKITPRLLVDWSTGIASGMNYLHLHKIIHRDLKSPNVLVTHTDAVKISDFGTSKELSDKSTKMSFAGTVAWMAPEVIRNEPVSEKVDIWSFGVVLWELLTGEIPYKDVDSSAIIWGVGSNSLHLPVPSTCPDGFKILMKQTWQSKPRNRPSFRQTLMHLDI

Structure (SMILES)	IC50 (DLK)	IC50 (LZK)
Nc1nc2ccc(-c3csc(C(=O)NCc4ccco4)c3)cn2n1 [Compound 275]	630 nM	16000 nM
COCCOc1cccc(CNC(=O)c2cc(-c3ccc4nc(N)nn4c3)cs2)c1 [Compound 292]	1200 nM	19000 nM
Nc1nc2ccc(-c3csc(C(=O)NCc4ncco4)c3)cn2n1 [Compound 239]	1850 nM	18000 nM
Nc1nc2ccc(-c3csc(C(=O)NCCc4ccccc4)c3)cn2n1 [Compound 211]	970 nM	18000 nM
CCN(CC)Cc1ccc(CNC(=O)c2cc(-c3ccc4nc(N)nn4c3)cs2)cc1 [Compound 329]	740 nM	21000 nM
C[C@@H](NC(=O)c1cc(-c2ccc3nc(N)nn3c2)cs1)c1cccc(Cl)c1 [Compound 267]	260 nM	> 30000 nM
CCc1nnc(-c2cc(-c3csc(C(=O)NCc4ccc(F)cc4)c3)cn3nc(N)nc23)s1 [Compound 394]	410 nM	2500 nM
COc1cccc(C2(NC(=O)c3cc(-c4ccc5nc(N)nn5c4)cs3)CC2)c1 [Compound 291]	710 nM	14000 nM
COc1cccc(CNC(=O)c2cc(-c3ccc4nc(N)nn4c3)c(C)s2)c1 [Compound 311]	19000 nM	> 30000 nM
Nc1nc2ccc(-c3csc(C(=O)NCc4nc5ccccc5o4)c3)cn2n1 [Compound 246]	1140 nM	4400 nM
Nc1nc2cc(-c3csc(C(=O)NCC4CCCCC4)c3)ccn2n1 [Compound 366]	310 nM	> 30000 nM
CC(C)(C)NC(=O)c1cc(-c2csc(C(=O)NCc3nc4ccccc4o3)c2)cn2nc(N)nc12 [Compound 23]	300 nM	630 nM
COc1ccc2c(c1)nc(CNC(=O)c1cc(-c3ccc4nc(N)nn4c3)cs1)n2C [Compound 260]	1200 nM	> 30000 nM
CCC(C)c1nnc(-c2cc(-c3csc(C(=O)N[C@@H](CC)c4ccc(F)cc4)c3)cn3nc(N)nc23)s1 (stereo partly drawn) [Compound 398]	880 nM	3900 nM
Nc1nc2ccc(-c3csc(C(=O)NCc4ccccc4)c3)cn2n1 [Compound 168]	380 nM	4600 nM
Nc1nc2ccc(-c3csc(C(=O)NCc4ccc5c(c4)OCO5)c3)cn2n1 [Compound 295]	390 nM	14000 nM
C[C@H]1CCC[C@@H](NC(=O)c2cc(-c3ccc4nc(N)nn4c3)cs2)C1 (single isomer, unassigned) [Compound 165]	880 nM	> 30000 nM
CCO[C@H]1CC[C@H](NC(=O)c2cc(-c3ccc4nc(N)nn4c3)cs2)CC1 [Compound 177]	1600 nM	> 30000 nM
Nc1nc2ccc(-c3csc(C(=O)NCc4cccs4)c3)cn2n1 [Compound 274]	260 nM	11000 nM
CC(C)NS(=O)(=O)c1cc(-c2csc(C(=O)N[C@@H](C)c3ccc(F)cc3)c2)cn2nc(N)nc12 [Compound 384]	> 30000 nM	> 30000 nM
Cc1c(-c2ccc3nc(N)nn3c2)csc1C(=O)N[C@@H](C)c1ccc(F)cc1 [Compound 351]	6400 nM	20000 nM
COc1cccc(CNC(=O)c2cc(-c3cc(C(F)(F)F)c4nc(N)nn4c3)cs2)c1 [Compound 380]	1100 nM	> 30000 nM

Molecules with a lower IC50 (DLK), results first:

IC50 (DLK)	IC50 (LZK)	Structure (SMILES)
230 nM	12000 nM	Nc1nc2ccc(-c3csc(C(=O)NCc4cccc(OC5CC5)c4)c3)cn2n1 [Compound 205]
220 nM	1250 nM	COc1cccc(CNC(=O)c2cc(-c3cc(C(=O)NC4CCNC4)c4nc(N)nn4c3)cs2)c1 (stereo not drawn) [Compound 37]
210 nM	1200 nM	COCc1cc(-c2csc(C(=O)N[C@@H](C)c3ccc(F)cc3)c2)cn2nc(N)nc12 [Compound 388]
130 nM	4800 nM	Nc1nc2ccc(-c3csc(C(=O)NC4CCOc5ccc(F)cc54)c3)cn2n1 (stereo not drawn) [Compound 315]
130 nM	> 30000 nM	Nc1nc2ccc(-c3csc(C(=O)NC(c4ccccc4)C4CC4)c3)cn2n1 (stereo not drawn) [Compound 347]
120 nM	4600 nM	C[C@H](NC(=O)c1cc(-c2cc(C(=O)NCC(F)(F)F)c3nc(N)nn3c2)cs1)c1ccc(F)cc1 [Compound 63]
120 nM	1700 nM	CC[C@H](NC(=O)c1cc(-c2ccc3nc(N)nn3c2)cs1)c1ccc(F)cc1 [Compound 319]
55 nM	880 nM	C[C@H](NC(=O)c1cc(-c2cc(C(=O)NC3CCNC3)c3nc(N)nn3c2)cs1)c1ccccc1 (mixture of isomers) [Compound 34]
47 nM	1400 nM	C[C@H](NC(=O)c1cc(-c2cc(C(=O)NC3CC3)c3nc(N)nn3c2)cs1)c1ccccc1 [Compound 44]
36 nM	680 nM	CC[C@@H](NC(=O)c1cc(-c2cc(C(=O)NC(C)C)c3nc(N)nn3c2)cs1)c1ccc(F)cc1 [Compound 134]
32 nM	120 nM	CC(C)NC(=O)c1cc(-c2csc(C(=O)NCc3nc4ccccc4o3)c2)cn2nc(N)nc12 [Compound 35]
29.5 nM	330 nM	Nc1nc2c(C(=O)NC3CCC3)cc(-c3csc(C(=O)NCc4ccc(F)cc4)c3)cn2n1 [Compound 58]
22 nM	130 nM	CC(NC(=O)c1cc(-c2csc(C(=O)N[C@@H](C)c3ccccc3)c2)cn2nc(N)nc12)C(F)(F)F (mixture of isomers) [Compound 43]
20 nM	550 nM	C[C@H](NC(=O)c1cc(-c2cc(C(=O)N[C@H]3CCOC3)c3nc(N)nn3c2)cs1)c1ccc(C(F)(F)F)cc1 [Compound 105]
9.3 nM	40 nM	C[C@@H](CO)NC(=O)c1cc(-c2csc(C(=O)NCc3ccccc3)c2)cn2nc(N)nc12 [Compound 21]
7.5 nM	120 nM	C[C@H](NC(=O)c1cc(-c2cc(C(=O)N[C@H](CO)C(F)(F)F)c3nc(N)nn3c2)cs1)c1ccc(F)cc1 [Compound 109]
7.2 nM	43 nM	CC[C@H](C)NC(=O)c1cc(-c2csc(C(=O)N[C@H]3CCOc4ccccc43)c2)cn2nc(N)nc12 [Compound 144-3]
6.4 nM	68 nM	C[C@H](NC(=O)c1cc(-c2cc(C(=O)N[C@@H](C)CO)c3nc(N)nn3c2)cs1)c1ccc(F)cc1 [Compound 26, 2-Amino-6-(5-{[(1S)-1-(4-fluorophenyl)ethyl]carbamoyl}thiophen-3-yl)-N-[(2S)-1-hydroxypropan-2-yl][1,2,4]triazolo[1,5-a]pyridine-8-carboxamide]
6.32 nM	122 nM	CC(C)NC(=O)c1cc(-c2csc(C(=O)N[C@@H](C)c3ccccc3)c2)cn2nc(N)nc12 [Compound 20]
5.8 nM	200 nM	C[C@H](NC(=O)c1cc(-c2cc(C(=O)N[C@@H](C)CO)c3nc(N)nn3c2)cs1)c1nc2ccccc2o1 [Compound 100]
3.2 nM	37 nM	CC[C@H](C)NC(=O)c1cc(-c2csc(C(=O)N[C@@H](C)c3ccccc3)c2)cn2nc(N)nc12 [Compound 88]
2.9 nM	83 nM	CC(C)NC(=O)c1cc(-c2csc(C(=O)NC3(c4ccc(F)cc4)CCCC3)c2)cn2nc(N)nc12 [Compound 123]
1.3 nM	41 nM	CC[C@H](NC(=O)c1cc(-c2cc(C(=O)N[C@H]3CCOC3)c3nc(N)nn3c2)cs1)c1ccc(F)cc1 [Compound 115]
